# Source: patent US11865098B1, “Methods and compositions for treating excessive sleepiness” (Axsome Malta Ltd., priority 2017, dated 2024)
# Test system: adult patients with OSA and ES
# Test: Safety and tolerability (TEAEs, vital signs), 12-week parallel study in OSA
# Type: in vivo, human
# Conditions: for Anxiety, incidence / Any TEAE, incidence / Decreased appetite, incidence / Diarrhea, incidence / Discontinuations due to TEAEs, incidence / Dry mouth, incidence / Feeling jittery, incidence / Headache, incidence / Insomnia, incidence / Irritability, incidence / Nasopharyngitis, incidence / Nausea, incidence / Pruritus, incidence / Serious TEAEs, incidence / Sinusitis, incidence: safety population
# Experimental: The study was a 12-week, double-blind, placebo-controlled, parallel design study as described in greater detail in Example 1 (Schweitzer et al., Sleep 40(Abstract Supplement):A237. Abstract 0641 (2017)). Patients were randomized (1:1:2:2:2) to APC 37.5, 75, 150, 300 mg, or placebo for 12 weeks, and were stratified by adherence or non-adherence with primary OSA therapy (adherent definition was use for ≥4 hours per night on >70% of nights). Two patient-reported measures were included as secondary efficacy outcomes to evaluate the effects of APC on functional status and work productivity and activity impairment at baseline and weeks 1, 4, 8, and 12. The Functional Outcomes of Sleep questionnaire short version (FOSQ-10) (Chasens et al., Sleep 32(7):915 (2009)) evaluated the effects of ES on functioning. The Work Productivity and Activity Impairment questionnaire for Specific Health Problems (WPAI:SHP) (Reilly et al., Pharmacoeconomics 4(5):353 (1993); Reilly, Work Productivity and Activity Impairment Questionnaire: Specific Health Problem V2.0 (WPAI: SHP). www.reillyassociates.net/WPAI_SHP) evaluated work productivity impairment among employed patients and overall activity impairment outside of work among all patients for the past 7 days. Four outcomes are available from the WPAI:SHP: Absenteeism (percent work time missed due to health); Presenteeism (percent impairment while working due to health); Percent overall work impairment (calculated from absenteeism and presenteeism); and Percent activity impairment due to health. The FOSQ-10 was evaluated as change over time compared with placebo (least squares (LS) mean); the 4 WPAI outcomes were evaluated at week 12 compared to placebo. Efficacy analyses were based on the modified intent-to-treat population (mITT) and there was no multiplicity adjustment for the FOSQ-10 or WPAI:SHP. Safety and tolerability were assessed based on treatment-emergent adverse events (TEAEs), vital signs, electrocardiogram test, physical exams, Columbia-Suicide Severity Rating Scale, and laboratory tests in the safety population.
# Efficacy analyses were based on the modified intent-to-treat (mITT) population; there was no multiplicity adjustment for the SF-36 v2 or EQ-5D-5L. SF-36 v2 scores were scaled from 0 to 100 (higher scores on all scales represent better health), transformed to norm-based scores using US general-population data from SF-36 Manuals (Ware Jr et al., User's Manual for the SF-36v2™ Health Survey (2nd ed.). QualityMetric Incorporated (Lincoln, RI); 2007), and were analyzed using a mixed-effect model with repeated measures (MMRM); and baseline value of the efficacy endpoint was used to determine differences in changes from baseline. EQ-5D-5L VAS and index-score data were analyzed using an MMRM model. Safety and tolerability were assessed based on treatment-emergent adverse events (TEAEs), vital signs, electrocardiogram test, physical exams, and laboratory tests.
compound,measurement,setting,value
"NC(=O)OC[C@H](N)Cc1ccccc1 [JZP-110, (R)-2-amino-3-phenylpropyl carbamate]",Serious TEAEs reported (events),37.5 mg,bile duct obstruction (n=1) and streptococcal endocarditis (n=1)
same,"Anxiety, incidence",37.5 mg (n = 58),1 (1.7) n (%)
same,"Any TEAE, incidence",37.5 mg (n = 58),37 (63.8) n (%)
same,"Decreased appetite, incidence",37.5 mg (n = 58),1 (1.7) n (%)
same,"Diarrhea, incidence",37.5 mg (n = 58),1 (1.7) n (%)
same,"Discontinuations due to TEAEs, incidence",37.5 mg (n = 58),3 (5.2) n (%)
same,"Dry mouth, incidence",37.5 mg (n = 58),1 (1.7) n (%)
same,"Feeling jittery, incidence",37.5 mg (n = 58),3 (5.2) n (%)
same,"Headache, incidence",37.5 mg (n = 58),4 (6.9) n (%)
same,"Insomnia, incidence",37.5 mg (n = 58),1 (1.7) n (%)
same,"Irritability, incidence",37.5 mg (n = 58),3 (5.2) n (%)
same,"Nasopharyngitis, incidence",37.5 mg (n = 58),2 (3.4) n (%)
same,"Nausea, incidence",37.5 mg (n = 58),3 (5.2) n (%)
same,"Pruritus, incidence",37.5 mg (n = 58),3 (5.2) n (%)
same,"Serious TEAEs, incidence",37.5 mg (n = 58),2 (3.4) n (%)
same,"Sinusitis, incidence",37.5 mg (n = 58),1 (1.7) n (%)
same,Serious TEAEs reported (events),"37.5 mg, listed as APC","bile duct obstruction (n=1), and streptococcal endocarditis (n=1)"
same,"Anxiety, incidence",75 mg (n = 62),2 (3.2) n (%)
same,"Any TEAE, incidence",75 mg (n = 62),30 (48.4) n (%)
same,"Decreased appetite, incidence",75 mg (n = 62),3 (4.8) n (%)
same,"Diarrhea, incidence",75 mg (n = 62),3 (4.8) n (%)
same,"Discontinuations due to TEAEs, incidence",75 mg (n = 62),2 (3.2) n (%)
same,"Dry mouth, incidence",75 mg (n = 62),1 (1.6) n (%)
same,"Feeling jittery, incidence",75 mg (n = 62),3 (4.8) n (%)
same,"Headache, incidence",75 mg (n = 62),5 (8.1) n (%)
same,"Insomnia, incidence",75 mg (n = 62),0 n (%)
same,"Irritability, incidence",75 mg (n = 62),0 n (%)
same,"Nasopharyngitis, incidence",75 mg (n = 62),1 (1.6) n (%)
same,"Nausea, incidence",75 mg (n = 62),3 (4.8) n (%)
same,"Pruritus, incidence",75 mg (n = 62),0 n (%)
same,"Serious TEAEs, incidence",75 mg (n = 62),0 n (%)
same,"Sinusitis, incidence",75 mg (n = 62),4 (6.5) n (%)
same,Serious TEAEs reported (events),150 mg,hyperglycemia (n=1)
same,"Anxiety, incidence",150 mg (n = 117),6 (5.1) n (%)
same,"Any TEAE, incidence",150 mg (n = 117),83 (70.9) n (%)
same,"Decreased appetite, incidence",150 mg (n = 117),9 (7.7) n (%)
same,"Diarrhea, incidence",150 mg (n = 117),5 (4.3) n (%)
same,"Discontinuations due to TEAEs, incidence",150 mg (n = 117),5 (4.3) n (%)
same,"Dry mouth, incidence",150 mg (n = 117),5 (4.3) n (%)
same,"Feeling jittery, incidence",150 mg (n = 117),1 (0.9) n (%)
same,"Headache, incidence",150 mg (n = 117),10 (8.5) n (%)
same,"Insomnia, incidence",150 mg (n = 117),3 (2.6) n (%)
same,"Irritability, incidence",150 mg (n = 117),4 (3.4) n (%)
same,"Nasopharyngitis, incidence",150 mg (n = 117),7 (6.0) n (%)
same,"Nausea, incidence",150 mg (n = 117),10 (8.5) n (%)
same,"Pruritus, incidence",150 mg (n = 117),1 (0.9) n (%)
same,"Serious TEAEs, incidence",150 mg (n = 117),1 (0.9) n (%)
same,"Sinusitis, incidence",150 mg (n = 117),0 n (%)
same,"Anxiety, incidence",300 mg (n = 118),16 (13.6) n (%)
same,"Any TEAE, incidence",300 mg (n = 118),91 (77.1) n (%)
same,"Decreased appetite, incidence",300 mg (n = 118),14 (11.9) n (%)
same,"Diarrhea, incidence",300 mg (n = 118),8 (6.8) n (%)
same,"Discontinuations due to TEAEs, incidence",300 mg (n = 118),15 (12.7) n (%)
same,"Dry mouth, incidence",300 mg (n = 118),9 (7.6) n (%)
same,"Feeling jittery, incidence",300 mg (n = 118),7 (5.9) n (%)
same,"Headache, incidence",300 mg (n = 118),17 (14.4) n (%)
same,"Insomnia, incidence",300 mg (n = 118),11 (9.3) n (%)
same,"Irritability, incidence",300 mg (n = 118),1 (0.8) n (%)
same,"Nasopharyngitis, incidence",300 mg (n = 118),8 (6.8) n (%)
same,"Nausea, incidence",300 mg (n = 118),12 (10.2) n (%)
same,"Pruritus, incidence",300 mg (n = 118),0 n (%)
same,"Serious TEAEs, incidence",300 mg (n = 118),0 n (%)
same,"Sinusitis, incidence",300 mg (n = 118),3 (2.5) n (%)
same,Mean increase from baseline in diastolic blood pressure,12-week OSA study,1-3 mmHg
same,Mean increase from baseline in pulse rate,12-week OSA study,2-5 beats/minute
same,Mean increase from baseline in systolic blood pressure,12-week OSA study,1-4 mmHg
same,"Anxiety, incidence",All doses (n = 355),25 (7.0) n (%)
same,"Any TEAE, incidence",All doses (n = 355),241 (67.9) n (%)
same,"Decreased appetite, incidence",All doses (n = 355),27 (7.6) n (%)
same,"Diarrhea, incidence",All doses (n = 355),17 (4.8) n (%)
same,"Discontinuations due to TEAEs, incidence",All doses (n = 355),25 (7.0) n (%)
same,"Dry mouth, incidence",All doses (n = 355),16 (4.5) n (%)
same,"Feeling jittery, incidence",All doses (n = 355),14 (3.9) n (%)
same,"Headache, incidence",All doses (n = 355),36 (10.1) n (%)
same,"Insomnia, incidence",All doses (n = 355),15 (4.2) n (%)
same,"Irritability, incidence",All doses (n = 355),8 (2.3) n (%)
same,"Nasopharyngitis, incidence",All doses (n = 355),18 (5.1) n (%)
same,"Nausea, incidence",All doses (n = 355),28 (7.9) n (%)
same,"Pruritus, incidence",All doses (n = 355),4 (1.1) n (%)
same,"Serious TEAEs, incidence",All doses (n = 355),3 (0.8) n (%)
same,"Sinusitis, incidence",All doses (n = 355),8 (2.3) n (%)
